Results on one compound are retold here after patent US20160045482A1, “UREIDO-PYRAZOLE DERIVATIVES” (Respivert Limited, priority 2010, published 2016).

Entries after “also recorded” stand apart in the source; their conditions may differ. Bounds are passed on as bounds.

Assay [1] has as its system IL-8. In words: IL-8 release activated by human rhinovirus in BEAS2B cells. Format: cell-based. Here is the method:
BEAS2B cells were infected with rhinovirus at an MOI of 5 and incubated for 2 hr at 33° C. with gentle shaking to enhance adsorption. Test compounds were added 2 hr before HRV infection and 2 hr after infection when residual extracellular HRV was washed out. The cells were then washed with PBS, fresh media was added and the cells were incubated for a further 72 hr. The supernatant was collected for assay of IL-8 concentrations using the Duoset ELISA development kit (R&D Systems, Minneapolis, Minn.).

In another assay the test system is HRV1B. In words: HRV1B titres in MRC-5 cells. As to conditions: 0.1 or 10 MOI, 3 days, results not shown. It is filed as cell-based, human rhinovirus.
In assay [2] the test system is HRV16. In words: HRV-16 infection, assessment of virus load (TCID50) in MRC5 cells. It is filed as cell-based, human rhinovirus 16. As to conditions: MRC5 cells, 0.1 MOI, total period of 84 hr.
For assay [3], the system named is HRV39. In words: HRV39 titres in MRC-5 cells. It is filed as cell-based, human rhinovirus. As to conditions: 0.1 or 10 MOI, 3 days, results not shown.
In assay [4] the test system is HRV39. Put plainly: HRV-39 viral load in air-liquid interface cultured nasal epithelial cells. It is filed as cell-based, human rhinovirus. The procedure: (§1) Primary nasal epithelial cells, cultured using an air-liquid interface, were purchased from Epithelix Sarl (Geneva, Switzerland). Fresh, warmed media (200 μL) containing either the test compound at the selected concentration or vehicle (DMSO; final concentration of 0.5%) was transferred to the apical chamber, and fresh, warmed media (700 μL) containing either the test compound at the selected concentration or vehicle (DMSO; final concentration of 0.5%) were transferred to the bottom chamber. After incubation for 2 hr, the media in the upper well was removed carefully. The following day, fresh, warmed media (200 μL) containing either the test compound at the selected concentration or vehicle (DMSO; final concentration of 0.5%) was transferred to the apical chamber again, and after incubation for 2 hr, the media was removed. On the third day, cells were treated again for 2 hr, and the media was removed. […] IL-8 concentrations were determined using a Duoset ELISA development kit (R&D Systems, Minneapolis, Minn.; FIG. 3B). […] The resultant cytopathic effects (CPE) were assessed by visual inspection 5 days after infection. The amount of virus required to infect 50% of Hela cells was calculated for each treatment and is reported as log[TCID50] […]

Another assay has as its target SYK (Homo sapiens, UniProt P43405). Put plainly: Kinase enzyme activity, FRET (Z-LYTE). Format: biochemical. The conditions noted are these: 15 μM ATP. Here is the method: The enzyme inhibitory activity of test compounds was determined by fluorescence resonance energy transfer (FRET) using synthetic peptides labelled with both donor and acceptor fluorophores (Z-LYTE, Invitrogen). For p38 MAPK alpha (MAPK14: Invitrogen), enzyme activity was evaluated indirectly by determining the activation/phosphorylation of the down-stream molecule, MAPKAP-K2. The p38 MAPK a protein was mixed with the test compound for 2 hr at RT. MAPKAP-K2 (Invitrogen), the FRET peptide (2 μM), which is a phosphorylation target for MAPKAP-K2, and ATP (10 μM) were then added to the enzymes/compound mixture and incubated for 1 hr. Development reagent was added and the mixture incubated for 1 hr before detection by fluorescence completed the assay protocol. The enzymes HCK, c-SRC, and SYK were evaluated in a similar fashion. Each enzyme was incubated with the test compound for 2 hr at RT. […] After the development reagent was added the mixtures were incubated for 1 hr and the assay protocol was completed by detection of the fluorescence levels in a microplate reader.

The subject of another assay is IRF-3. Put plainly: HRV-16 induced activation of IRF-3 in BEAS2B cells. As to conditions: after 2 hr, at 10 MOI. Format: cell-based, human. The procedure: (§2) The cells were then collected by scraping on ice and nuclear extracts were prepared using a nuclear protein extraction kit (ActiveMotif, […], Belgium). NFκB activity and IRF3 activity were then measured using the TransAMTM NFκB (p65) ELISA kit or the TransAMTM IRF3 ELISA kit.

Assay [5] has as its system IL-8. In words: HRV39-induced IL-8 release in air-liquid interface cultured nasal epithelial cells. It is filed as cell-based, human. The procedure: as §1
Another assay relates to NFκB. In words: HRV-16 induced activation of NFκB in BEAS2B cells. It is filed as cell-based, human. As to conditions: after 2 hr, at 10 MOI. Here is the method: as §2
In assay [6] the test system is HRV16. In words: Assessment of HRV16 induced CPE in MRC5. The conditions noted are these: Rhinovirus A, HRV16, MRC5, 96 h, read-out: HRV16-induced CPE IC50 Value (nM). It is filed as cell-based, human rhinovirus 16. The procedure: The supernatants were aspirated and fresh media was added and the preparations were then incubated for 4 days. Where appropriate, cells were pre-incubated with the test compound or DMSO for 2 hr, and the compounds and DMSO added again after washout of the virus. Supernatants were aspirated and incubated with methylene blue solution (2% formaldehyde, 10% methanol and 0.175% Methylene Blue) for 2 hr at RT. After washing, 1% SDS was added to each well, and plates were shaken lightly for 1-2 hr prior to reading the absorbance at 660 nm. The percentage inhibition for each well was calculated. The IC50 value was calculated from the concentration-response curve generated from the serial dilutions of the test compound.

Assay [7] concerns HRV16. In words: HRV-16 infection, assessment of virus load (TCID50) in MRC5 cells. It is filed as cell-based, human rhinovirus 16. As to conditions: HRV16 0.1 MOI, 3 days. Here is the method:
Human rhinovirus RV16 (HRV16) was obtained from the American Type Culture Collection (Manassas, Va.). Viral stocks were generated by infecting Hela cells with HRV until 80% of the cells were cytopathic. MRC5 cells (human lung fibroblast, ATCC) were infected at 0.1 MOI (multiplicity of infection of 0.1) of HRV16 and incubated for 1 hr at 33° C. with gentle shaking to stimulate adsorption. The cells were then washed with PBS, fresh media (DMEM-5% FCS) was added and the cells were incubated for a further 72 hr. Supernatant (20 μL) was collected and 10-fold serial dilutions were prepared with DMEM containing 1% FCS. All titrations were performed by infecting confluent Hela cell monolayers with serially diluted supernatant (10^−1-10^−5) and then the cytopathic effect at each dilution 3 days after infection assessed by visual inspection. The cells were then stained with Crystal Violet for confirmation. The amount of virus required to infect 50% of Hela cells was calculated in each treatment as TCID50 (50% tissue culture infectious dose, U(unit)/20 μL). Compounds were added 2 hr before HRV16 infection and 1 hr after infection when non-infected HRV was washed out.

The test system of another assay is ICAM-1. Put plainly: ICAM1 expression activated by human rhinovirus in BEAS2B cells (cell-based ELISA). The procedure:
BEAS2B cells were infected with rhinovirus at an MOI of 5 and incubated for 2 hr at 33° C. with gentle shaking to enhance adsorption. Test compounds were added 2 hr before HRV infection and 2 hr after infection when residual extracellular HRV was washed out. The cells were then washed with PBS, fresh media was added and the cells were incubated for a further 72 hr. The supernatant was collected for assay of IL-8 concentrations using the Duoset ELISA development kit (R&D Systems, Minneapolis, Minn.). […] After appropriate incubation, cells were fixed with 4% formaldehyde in PBS. After quenching endogenous peroxidase by adding 0.1% sodium azide and 1% hydrogen peroxide, wells were washed with buffer (0.05% Tween in PBS: PBS-Tween). After incubation with the blocking solution (5% milk in PBS-Tween for 1 hr), cells were incubated with anti-human ICAM-1 antibody in 5% BSA PBS-Tween (1:500) overnight. Wells were then washed with PBS-Tween and incubated with the secondary antibody (HRP-conjugated anti-rabbit IgG, Dako Ltd.).
(In an ELISA, binding on a coated surface is turned into a signal by an enzyme label.)

One may read the IC50 as the point on the concentration scale where inhibition reaches its midpoint. In the case of `COCC(=O)Nc1cc(COc2ccc(NC(=O)Nc3cc(C(C)(C)C)nn3-c3ccc(C)cc3)c3ccccc23)ccn1` [Reference Compound 1, N-[4-({4-[3-(3-tert-Butyl-1-p-tolyl-1H-pyrazol-5-yl)ureido]naphthalen-1-yloxy}methyl)pyridin-2-yl]-2-methoxyacetamide, reference compound], the half-inhibitory concentration (IC50) was 1 nM with IL-8 [1] (Homo sapiens, BEAS-2B, BEAS2B cells, MOI of 5, 72 hr, read-out: HRV16-induced IL-8 IC50 Value); above 17800 nM against SYK; 340 nM with HRV16 [6]; above 1690 nM in the assay with ICAM-1 (Homo sapiens, BEAS-2B, HRV16 inoculation (2 hr infection), read-out: HRV16-induced ICAM1 IC50 Value). Moreover, the “IL-8 production in response to inoculation using HRV-16” value in the assay with IL-8 [1] (epithelial cells) is recorded as “marked inhibition”. The HRV1B titres result in the assay on HRV1B was “little or no discernable effect”. Moreover, in the assay with HRV16 [2], the “Activity versus extracellular HRV16 load, delaying treatment for 24-36 hr” value is given as “marked decrease in activity”. The “Activity versus extracellular HRV16 load, initial treatment” value in the assay on HRV16 [2] is given as “marked activity”. In addition, the HRV39 titres entry with HRV39 [3] was “little or no discernable effect”. In addition, the “HRV39 extracellular virus load” value with HRV39 [4] was “little effect”. Moreover, the “IRF-3 activation (HRV-16 induced)” value in the assay on IRF-3 is “without effect; also recorded: No effect”. In the assay with IL-8 [5], the “IL-8 production in response to inoculation using HRV39” value is listed as “marked inhibition”. Further, the “NFκB activation (HRV-16 induced)” value in the assay with NFκB is on record as “some evidence of inhibition; also recorded: Modest inhibition”. Further, in the assay on HRV16 [7], the “HRV-16 virus load (extracellular)” value is “modest effect; also recorded: Modest inhibition”. Moreover, in the assay with ICAM-1 (2 hr infection), the “ICAM-1 expression induced by HRV16 inoculation (in words)” value is given as “no effect”.
